Test results as given in patent US20200390755A1, “COMPOUND FOR TREATING NERVOUS SYSTEM DISEASES AND USE THEREOF” (SHAANXI MICOT TECHNOLOGY CO., LTD., priority 2018, published 2020).

What was measured:
AKT signaling pathway = assay: Western blotting of p-AKT and t-AKT in primary cortical neuron cells; format: cell-based, mouse; details: 500 nM, 10 min at 37° C., Vehicle = 100, n = 3
Experimental: N171-82Q WT male mice were mated with female B6C3F1/J hybrid mice. B6C3F1/J mice 18 days after pregnancy were anesthetized with isoflurane and dissected to remove embryos, which were then placed in a 10 cm Petri dish containing Leibovitz's buffer. The head of the embryo was cut off, and the brain was peeled off to obtain the whole mouse brain, which was then placed in a new 10 cm Petri dish containing Leibovitz's buffer. The neurocortex of the brain was separated and placed in a 15 mL centrifuge tube containing 3 mL Leibovitz's buffer. The centrifuge tube was centrifuged at 1000 rpm for 1 minute, and the Leibovitz's buffer was gently removed from the centrifuge tube, and then 750 μL of 0.25% trypsin-EDTA and 75 μL of 0.1% DNase (2000 U/mL) were added to digest at 37° C. for 15 min. 750 μL of DMEM medium containing 5% FBS was added to stop the digestion. The cells were mixed well, and centrifuged at 1000 rpm for 5 minutes. Trypins/DNase mixture was removed, and 750 μL of Neurobasal medium (B-27, Glutamax, P/S) was added. The cells were mixed by gently pipetting with a pipette for 30 times. The cell suspension was filtered with a 40 µm filter and transferred to another new 50 mL centrifuge tube. 10 μL of the cell suspension was added to 90 μL of DMEM (diluted 10 times), and 10 μL of the liquid mixture was placed on a hemocytometer so that the suspension filled between the cover slip and the counting plate for counting. The cells in the four large grids of the plate were counted, wherein for the cells across the line, only the cells on the left and upper side lines were counted. The following formulas were used:
Number of cells/mL=total number of cells in the four large grids/4×10^4/mL
Total number of cells/mL=total number of cells in the four large grids/4×10^4/mL×dilution factor.
After counting, the cells were diluted with Neurobasal selection medium so that 1 mL of Neurobasal culture medium contained 0.5×10^6 cells.
200 μL of PDL solution previously heated in a 37° C. water bath was added to each well of a 6-well plate, and incubated at 37° C. overnight to allow PDL to evenly coat the well plate. The PDL solution was absorbed and the plate was washed twice with PBS. Before use, the PBS remaining on the plate was absorbed and the cover was opened to dry the plate in a super clean bench. 2 mL of cell suspension was added to each well (37° C., 5% CO2), and the cells were cultured until adherence. The culture medium was replaced and the culture continued for 3 days, and then the growth status of neurons was observed. Every other 3 days, half of the medium was removed and replaced with fresh complete medium. The culture continued until the primary cortical neuron cells mature (usually mature on the 14th day of culture).
After the primary cortical neuron cells have matured, appropriate amount of freshly prepared culture medium was added until final volume in each well was 2 mL. The experiment included a blank control group (Vehicle), a positive control group BDNF (10 ng/mL), a control compound group (500 nM), and 6 test compound groups (500 nM). Three repeats were set for each dose. After incubating at 37° C. for 10 min, the culture solution was discarded and the cells were washed with pre-chilled PBS, and then 40 μL of pre-chilled lysate (RIPA buffer 10 mL and protease and phosphatase inhibitor 100 μL) was added to each well for lysis on ice for 30 min. After lysis, the cell was crushed by ultrasonic cell crusher, centrifuged at 14000 rpm for 20 min at 4° C. The supernatant was transferred to a new 1.5 mL centrifuge tube to extract protein. Western blotting experiments were used to detect the protein levels of (A) p-TrkB and t-TrkB; (B) p-AKT and t-AKT.
The software Sigmaplot 13.0 was used for statistical analysis of the data, and the data of each group was expressed as mean±standard error (x±SEM). […]

[1] = test system: rats with permanent cerebral ischemia; assay: Neurobehavioral scoring in rats with permanent cerebral ischemia (MCAO thread plug); format: in vivo, SD rats; details: 20 mg/kg by gavage
Experimental: SD rats, male, about 220-250 g, were provided by the Experimental Animal Center of Medical College of Xi'an Jiaotong University. Rats were randomly divided into groups of 14 animals/group. The experiment included a sham group, a model group, a positive control Edaravone group and test compound groups 1-5.12 hours before the operation, the rats were fasted and were free to drink water, and then used for the modeling method of middle cerebral artery occlusion with thread plug. The rats were fixed on a wooden board after anesthesia, the common carotid artery was ligated proximally, the external carotid artery was ligated distally, and the main internal carotid artery into skull was retained. A ligature line was reserved at the bifurcation of the internal carotid artery for temporarily clamping the distal end of the internal carotid artery using an arterial clip. A 3-0 nylon thread with a length of 5 cm and a spherical shape with a diameter of 0.3 mm at the tip was inserted into the common carotid artery through a small incision at the bifurcation. The arterial clamp was loosened, and the thread plug was slowly advanced to 18˜20 mm. When there was resistance, the progress of the thread was stopped. At this time, the nylon thread plug entered the middle artery and blocked the blood flow, and then the ischemic phase began. The skin was sutured. In the sham operation group, the same procedure was executed, except that no thread plug was inserted.
Administering was performed at 0 h, 3 h, 6 h and 12 h after ischemia, and then administering was performed once a day for 7 consecutive days. The test compound was prepared into a 4 mg/mL solution with 1% CMC-Na solution and administered by gavage. The edaravone group received an intravenous dose of 0.078 mg/kg.
2) The rats were lifted at its tail about 1 foot off the ground to observe the condition of both forelimbs. The rats were placed on a level ground and pushed on both shoulders to observe the difference in resistance on both sides. The rats were placed on the ground to observe the walking. The assessment was conducted using a five-grade four-point scoring method (0 to 4 points). The higher the score, the more severe the neurobehavioral damage.
0 point: the behavior is completely normal;
1 point: when the rat is lifted at its tail off the ground, the forelimb on the opposite side of the operation rotates and folds inwardly.
2 points: when the rat is placed on a level ground and pushed on both shoulders to observe the difference in resistance on both sides, the resistance on the opposite side of the operation reduces;
3 points: when the rat is placed on the ground to the walking, it circles around the opposite side of the operation;
4 points: The injury is so severe that the rat is unable to move independently.
(2) Statistical analysis of data: SPSS18.0 statistical software was used for statistical analysis and the data of each group was expressed as the mean standard error (x±SEM). One-way ANOVA and multiple comparisons between groups were used to compare the averages of measurement data among multiple groups. Rank score test was used for behavioral grading data, and Kaplan-Meier method was used for mortality. P<0.05 was considered statistically significant.

SMILES	Relative intensity of p-AKT/t-AKT protein (AKT signaling pathway)	Neurobehavioral score (0 to 4 points) ([1]; 6 h after ischemia)	Neurobehavioral score (0 to 4 points) ([1]; 1 d after ischemia)	Neurobehavioral score (0 to 4 points) ([1]; 2 d after ischemia)	Neurobehavioral score (0 to 4 points) ([1]; 3 d after ischemia)	Neurobehavioral score (0 to 4 points) ([1]; 4 d after ischemia)	Neurobehavioral score (0 to 4 points) ([1]; 5 d after ischemia)	Neurobehavioral score (0 to 4 points) ([1]; 6 d after ischemia)	Neurobehavioral score (0 to 4 points) ([1]; 7 d after ischemia)
CC1(C)CCN(c2ccc(-c3cc(=O)c4ccc(O)c(O)c4o3)cc2)CC1 [Example 4, 2-(4-(4,4-dimethylpiperidin-1-yl)phenyl)-7,8-dihydroxy-4H-chromen-4-one]	215.698 ± 5.487	2.23 ± 0.36	1.99 ± 0.36	1.85 ± 0.45	2.23 ± 0.36	1.54 ± 0.27	1.78 ± 0.11	1.68 ± 0.27	1.12 ± 0.23
CC1CC(C)CN(c2ccc(-c3cc(=O)c4ccc(O)c(O)c4o3)cc2)C1 (stereo not drawn) [Example 5, 2-(4-(3,5-dimethylpiperidin-1-yl)phenyl)-7,8-dihydroxy-4H-chromen-4-one]	219.904 ± 6.954	2.03 ± 0.29	1.86 ± 0.44	1.75 ± 0.25	1.94 ± 0.23	1.85 ± 0.34	1.93 ± 0.20	1.72 ± 0.44	1.19 ± 0.30
O=c1cc(-c2ccc(N3CCCCC3)cc2)oc2c(O)c(O)ccc12 [Example 1, 7,8-dihydroxy-2-(4-(piperidin-1-yl)phenyl)-4H-chromen-4-one]	219.663 ± 8.085	2.07 ± 0.22	2.11 ± 0.2	1.88 ± 0.35	2.13 ± 0.23	1.88 ± 0.35	2 ± 0.38	1.86 ± 0.34	1.17 ± 0.17
CN(C)C1CCN(c2ccc(-c3cc(=O)c4ccc(O)c(O)c4o3)cc2)CC1 [Example 3, 2-(4-(4-(dimethylamino)piperidin-1-yl)phenyl)-7,8-dihydroxy-4H-chromen-4-one]	240.213 ± 8.376	1.98 ± 0.25	2.23 ± 0.34	1.91 ± 0.26	1.87 ± 0.33	1.74 ± 0.26	1.63 ± 0.20	1.78 ± 0.34	1.01 ± 0.27
COc1ccc2c(=O)cc(-c3ccc(N4CCCCC4)cc3)oc2c1OC [Example 2, 7,8-dimethoxy-2-(4-(piperidin-1-yl)phenyl)-4H-chromen-4-one]	209.651 ± 3.294	2.13 ± 0.17	2.04 ± 0.13	2.20 ± 0.25	1.98 ± 0.45	1.87 ± 0.27	2.11 ± 0.16	1.79 ± 0.28	1.21 ± 0.22
